Experimental data published in PubChem BioAssay AID1963973 (Molecular Pharmacology Branch, DTP, NCI, 2024).

Tested on: 883617-216-R-J1-PDC tumor spheroids, viability
Experiment: Anticancer human tumor 883617-216-R-J1-PDC patient-derived bladder carcinoma cell line growth inhibition [PI3K]
Settings: spheroids with HUVEC and MSC; for IC50: curve of first compound; for viability, T/C: stronger effect = lower value
Summary of the method: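 Viability of mixed-cell spheroids was determined after exposure to pairwise combinations, one partner being inavolisib, alpelisib, duvelisib or copanlisib. Highest tested concentration matched clinical Cmax where known and 10 microM where not, descending in half-log steps.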

[1] = second compound 0.0316 µM, first compound 0.0316 µM
[2] = second compound 0.0316 µM, first compound 0.1 µM
[3] = second compound 0.0316 µM, first compound 0.316 µM
[4] = second compound 0.0316 µM, first compound 1 µM
[5] = second compound 0.0316 µM, first compound 3.16 µM
[6] = second compound 0.0316 µM, first compound 10 µM
[7] = second compound 0.1 µM, first compound 0.0316 µM
[8] = second compound 0.1 µM, first compound 0.1 µM
[9] = second compound 0.1 µM, first compound 0.316 µM
[10] = second compound 0.1 µM, first compound 1 µM
[11] = second compound 0.1 µM, first compound 3.16 µM
[12] = second compound 0.1 µM, first compound 10 µM
[13] = second compound 0.316 µM, first compound 0.0316 µM
[14] = second compound 0.316 µM, first compound 0.1 µM
[15] = second compound 0.316 µM, first compound 0.316 µM
[16] = second compound 0.316 µM, first compound 1 µM
[17] = second compound 0.316 µM, first compound 3.16 µM
[18] = second compound 0.316 µM, first compound 10 µM
[19] = second compound 1 µM, first compound 0.0316 µM
[20] = second compound 1 µM, first compound 0.1 µM
[21] = second compound 1 µM, first compound 0.316 µM
[22] = second compound 1 µM, first compound 1 µM
[23] = second compound 1 µM, first compound 3.16 µM
[24] = second compound 1 µM, first compound 10 µM
[25] = second compound 3.16 µM, first compound 0.0316 µM
[26] = second compound 3.16 µM, first compound 0.1 µM
[27] = second compound 3.16 µM, first compound 0.316 µM
[28] = second compound 3.16 µM, first compound 1 µM
[29] = second compound 3.16 µM, first compound 3.16 µM
[30] = second compound 3.16 µM, first compound 10 µM
[31] = second compound 10 µM, first compound 0.0316 µM
[32] = second compound 10 µM, first compound 0.1 µM
[33] = second compound 10 µM, first compound 0.316 µM
[34] = second compound 10 µM, first compound 1 µM
[35] = second compound 10 µM, first compound 3.16 µM
[36] = second compound 10 µM, first compound 10 µM
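Also: spheroids exposed to agents for 7 days before the viability read.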

What does the source list for `CC(C)NCC(C(=O)N1CCN(c2ncnc3c2C(C)CC3O)CC1)c1ccc(Cl)cc1` (centres undefined) + CC(Nc1ncnc2nc[nH]c12)c1cc2cccc(Cl)c2c(=O)n1-c1ccccc1?
IC50 (second compound 0.0316 µM): 520 nM; IC50 (second compound 0.1 µM): 556 nM; IC50 (second compound 0.316 µM): 492 nM; IC50 (second compound 1 µM): 513 nM; IC50 (second compound 3.16 µM): 345 nM; IC50 (second compound 10 µM): < 31.6 nM; viability, T/C [1]: 87.6%; viability, T/C [2]: 84.8%; viability, T/C [3]: 55%; viability, T/C [4]: 39.7%; viability, T/C [5]: 17.8%; viability, T/C [6]: 9.17%; viability, T/C [7]: 78.2%; viability, T/C [8]: 76%; viability, T/C [9]: 59.9%; viability, T/C [10]: 38.7%; viability, T/C [11]: 18.9%; viability, T/C [12]: 8.02%; viability, T/C [13]: 97.8%; viability, T/C [14]: 78.8%; viability, T/C [15]: 60.9%; viability, T/C [16]: 35.4%; viability, T/C [17]: 17.8%; viability, T/C [18]: 8.48%; viability, T/C [19]: 69.1%; viability, T/C [20]: 81.1%; viability, T/C [21]: 52.4%; viability, T/C [22]: 40%; viability, T/C [23]: 17.1%; viability, T/C [24]: 6.81%; viability, T/C [25]: 64%; viability, T/C [26]: 53.8%; viability, T/C [27]: 55.2%; viability, T/C [28]: 28.8%; viability, T/C [29]: 16.5%; viability, T/C [30]: 7.2%; viability, T/C [31]: 49.6%; viability, T/C [32]: 42.7%; viability, T/C [33]: 38.7%; viability, T/C [34]: 25.4%; viability, T/C [35]: 13.1%; viability, T/C [36]: 6.37%

How did the IC50 (second compound 0.0316 µM) turn out when `CC1(C)CCC(CN2CCN(c3ccc(C(=O)NS(=O)(=O)c4ccc(NCC5CCOCC5)c([N+](=O)[O-])c4)c(Oc4cnc5[nH]ccc5c4)c3)CC2)=C(c2ccc(Cl)cc2)C1` + CC(Nc1ncnc2nc[nH]c12)c1cc2cccc(Cl)c2c(=O)n1-c1ccccc1 was run?
Its IC50 is greater than 10000 nM.

What about the IC50 (second compound 0.1 µM) of the same compound?
The IC50 was greater than 10000 nM.

And the IC50 (second compound 0.316 µM)?
The IC50 was 8990 nM.

And the IC50 (second compound 1 µM)?
Its IC50 is 7690 nM.

What about the IC50 (second compound 3.16 µM) of the same compound?
Its IC50 is 6400 nM.

What about the IC50 (second compound 10 µM) of the same compound?
The IC50 was less than 31.6 nM.

What about the viability, T/C [1] of the same compound?
Its viability, T/C is 93.1%.

And the viability, T/C [2]?
Its viability, T/C is 87.2%.

And the viability, T/C [3]?
The viability, T/C was 93.8%.

And the viability, T/C [4]?
Its viability, T/C is 87.7%.

And the viability, T/C [5]?
The viability, T/C was 87%.

And the viability, T/C [6]?
The viability, T/C was 50.8%.

What about the viability, T/C [7] of the same compound?
Its viability, T/C is 97%.

And the viability, T/C [8]?
The viability, T/C was 84.3%.

What about the viability, T/C [9] of the same compound?
Its viability, T/C is 91.7%.

What about the viability, T/C [10] of the same compound?
Its viability, T/C is 97.5%.

And the viability, T/C [11]?
The viability, T/C was 90.8%.

What about the viability, T/C [12] of the same compound?
The viability, T/C was 52%.

And the viability, T/C [13]?
Its viability, T/C is 94.7%.

And the viability, T/C [14]?
The viability, T/C was 96.2%.

And the viability, T/C [15]?
Its viability, T/C is 92%.

What about the viability, T/C [16] of the same compound?
Its viability, T/C is 88%.

What about the viability, T/C [17] of the same compound?
The viability, T/C was 76.6%.

And the viability, T/C [18]?
The viability, T/C was 46.9%.

And the viability, T/C [19]?
The viability, T/C was 85.2%.

What about the viability, T/C [20] of the same compound?
The viability, T/C was 85.8%.

What about the viability, T/C [21] of the same compound?
Its viability, T/C is 88%.

What about the viability, T/C [22] of the same compound?
Its viability, T/C is 79.3%.

And the viability, T/C [23]?
The viability, T/C was 70.1%.

And the viability, T/C [24]?
The viability, T/C was 44.2%.

And the viability, T/C [25]?
Its viability, T/C is 62.6%.

What about the viability, T/C [26] of the same compound?
Its viability, T/C is 76%.

And the viability, T/C [27]?
Its viability, T/C is 62.6%.

And the viability, T/C [28]?
Its viability, T/C is 65.7%.

And the viability, T/C [29]?
The viability, T/C was 59.2%.

And the viability, T/C [30]?
Its viability, T/C is 44.1%.

What about the viability, T/C [31] of the same compound?
The viability, T/C was 49%.

What about the viability, T/C [32] of the same compound?
The viability, T/C was 52.6%.

What about the viability, T/C [33] of the same compound?
The viability, T/C was 46.3%.

What about the viability, T/C [34] of the same compound?
Its viability, T/C is 40.3%.

What about the viability, T/C [35] of the same compound?
Its viability, T/C is 46.1%.

And the viability, T/C [36]?
The viability, T/C was 28.3%.
